# Publication PMC8085982 (Microbial Biotechnology, 2021)
# Where two headings read alike, the source gives them in different places.
# Legend:
# Pa5930 laccase [1] = settings: 50 mM Tris-HCl pH 7.2, 24 °C
# Pp4816 laccase [2] = settings: 50 mM Tris-HCl pH 7.2, 24 °C
# Pp4816 laccase [3] = experiment: initial rates, OD420, sigmoidal; assay type: biochemical, Pediococcus pentosaceus; settings: 50 mM sodium citrate pH 3.4, 24 °C; sigmoidal kinetics
# Pa5930 laccase [4] = experiment: initial rates, OD420, sigmoidal; assay type: biochemical, Pediococcus acidilactici; settings: 50 mM sodium citrate pH 3.4, 24 °C; sigmoidal kinetics
SMILES,Km (Pa5930 laccase [1]),Km (Pp4816 laccase [2]),Km (Pp4816 laccase [3]),Km (Pa5930 laccase [4])
"COc1cccc(OC)c1O [2,6-DMP, 2,6‐dimethoxyphenol]",3110 ± 850 µM,6330 ± 1320 µM,,
"CCn1c(=NN=c2sc3cc(S(=O)(=O)O)ccc3n2CC)sc2cc(S(=O)(=O)O)ccc21 [ABTS, 2,2‐azino‐bis(3‐ethylbenzothiazoline‐6‐sulfonic acid)]",,,310 ± 30 µM,330 ± 40 µM
